# Patent US12303520B2, “Aqueous nebulization composition” (Nephron Pharmaceuticals Corporation, priority 2017, dated 2025)
# What was measured:
# [1] = Solubility of budesonide in solvents; format: physicochemical
# Source text: Previous efforts to provide stable, inhalable budesonide solutions, including use of cyclodextrins or use of a modified budesonide, have not been proven pharmaceutically acceptable.
# [2] = background statement, cited from earlier work
compound,measurement,setting,value
"CCC[C@@H]1O[C@@H]2C[C@H]3C4CCC5=CC(=O)C=CC5(C)[C@H]4[C@@H](O)CC3(C)[C@]2(C(=O)CO)O1 (mixture of isomers) [Budesonide, (RS)-11-beta, 16-alpha, 17,21-tetrahydroxypregna-I, 4-diene-3,20-dione cyclic 16,17-acetal with butyraldehyde]",Solubility of budesonide in pure glycerol,[1],not to be soluble
same,Solubility of budesonide in heptanes,[2]; heptanes,practically insoluble
same,Solubility of budesonide in alcohols,"[2]; many alcohols (particularly polyhydric alcohols and organic, water-soluble glycols)",sparingly soluble
same,Solubility of budesonide in water,[2]; water,practically insoluble
